Values quoted from earlier work as cited in patent US12590059B2, “Process for the production of levetiracetam” (Suzhou BrightHope Pharmatech Co., Ltd, priority 2023, dated 2026).

Settings: stated as known

For CC[C@@H](C(N)=O)N1CCCC1=O [Levetiracetam], the solubility in water is listed as “about 100 g/100 mL water”.
